From patent US7816522B2, “Triazolone derivatives” (Eisai Co., Ltd., priority 2006, dated 2010)
Counter-ions that a name gives are not always drawn.

biological target: T1, human clotting factor VIIa (Homo sapiens, UniProt P08709); test: Inhibitory activity against clotting factor VIIa (chromogenic substrate Spectrozyme FVIIa, TF/Factor VIIa enzyme solution); type: biochemical; conditions: human Factor VIIa 5 nmol/L with human TF 10 nmol/L, room temperature 40 minutes, 405 nm
T1 construct: a human clotting factor VIIa (hereinafter, “Factor VIIa”) purified sample; purchased Enzyme Research Laboratories HFVIIa
T1 sequence (P08709 213-466 limits assumed): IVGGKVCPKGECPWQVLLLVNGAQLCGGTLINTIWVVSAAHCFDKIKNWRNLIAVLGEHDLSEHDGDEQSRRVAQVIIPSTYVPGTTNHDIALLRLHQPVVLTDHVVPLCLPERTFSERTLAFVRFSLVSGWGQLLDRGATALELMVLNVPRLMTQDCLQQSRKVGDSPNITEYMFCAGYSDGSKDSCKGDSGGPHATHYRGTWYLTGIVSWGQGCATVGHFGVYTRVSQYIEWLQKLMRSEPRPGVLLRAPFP
T1 sequence (P08709 61-212 limits assumed): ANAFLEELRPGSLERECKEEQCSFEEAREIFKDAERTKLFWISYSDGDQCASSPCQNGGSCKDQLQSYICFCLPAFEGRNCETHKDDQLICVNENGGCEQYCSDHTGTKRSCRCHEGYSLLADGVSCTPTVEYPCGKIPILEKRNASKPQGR
T1 sequence (P13726 33-295 partner): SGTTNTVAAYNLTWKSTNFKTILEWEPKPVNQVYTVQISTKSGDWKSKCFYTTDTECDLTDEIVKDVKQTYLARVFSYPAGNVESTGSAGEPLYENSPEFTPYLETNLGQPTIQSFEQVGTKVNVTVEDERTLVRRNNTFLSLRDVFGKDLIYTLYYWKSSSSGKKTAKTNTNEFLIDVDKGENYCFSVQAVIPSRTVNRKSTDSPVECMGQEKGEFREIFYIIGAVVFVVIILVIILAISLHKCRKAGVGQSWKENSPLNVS
Method in brief: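 Human Factor VIIa (5 nmol/L) with human TF (10 nmol/L) in Tris-BSA buffer pH 7.4 containing 15 mmol/L CaCl2 and cephalin, with Spectrozyme FVIIa substrate. Reaction 40 min at room temperature; 4-nitroanilide read at 405 nm. IC50 by non-linear regression over 100 μmol/L–0.1 nmol/L.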

**Q.** With `COc1cc(C(Nc2ccc(C(=N)N)cc2)c2nn(-c3ccsc3C(=O)O)c(=O)[nH]2)c(F)cc1OCCO` (racemic) [Example 237, 3-(3-{(4-Carbamimidoylphenylamino)-[2-fluoro-4-(2-hydroxyethoxy)-5-methoxyphenyl]methyl}-5-oxo-4,5-dihydro-[1,2,4]triazol-1-yl)thiophene-2-carboxylic acid] as the compound, how does the IC50 read?
**A.** 23.5 nM

**Q.** How did the IC50 turn out when `COc1cc(OC)c(F)c(C(Nc2ccc(C(=N)N)cc2)c2nn(-c3cccc[n+]3[O-])c(=O)[nH]2)c1` (single isomer, unassigned) [Example 2] was run?
**A.** 9.4 nM

**Q.** With `COc1cc(C(Nc2ccc(C(=N)N)cc2)c2nn(-c3ncsc3C(=O)O)c(=O)[nH]2)cc2c1OCCCO2` (single isomer, unassigned) [Example 180, 4-{3-[(4-carbamimidoylphenylamino)-(9-methoxy-3,4-dihydro-2H-benzo[b][1,4]dioxepin-7-yl)methyl]-5-oxo-4,5-dihydro-[1,2,4]triazol-1-yl}thiazole-5-carboxylic acid] as the compound, how does the IC50 read?
**A.** 10.1 nM

**Q.** Which IC50 does the source give for `CCOc1cc(C(Nc2ccc(C(=N)N)cc2)c2nn(-c3ncsc3C(=O)O)c(=O)[nH]2)cnc1OC` (single isomer, unassigned) [Example 185, 4-{3-[(4-Carbamimidoylphenylamino)-(5-ethoxy-6-methoxypyridin-3-yl)methyl]-5-oxo-4,5-dihydro-[1,2,4]triazol-1-yl}thiazole-5-carboxylic acid] here?
**A.** 11.6 nM

**Q.** With `COc1cc(F)c(C(Nc2ccc(C(=N)N)cc2)c2nn(-c3nc[nH]c3C(=O)O)c(=O)[nH]2)cc1OC` (single isomer, unassigned) [Example 187, 5-{3-[(4-Carbamimidoylphenylamino)-(2-fluoro-4,5-dimethoxyphenyl)methyl]-5-oxo-4,5-dihydro-[1,2,4]triazol-1-yl}-3H-imidazole-4-carboxylic acid] as the compound, how does the IC50 read?
**A.** 9 nM

**Q.** How did the IC50 turn out when `COc1cc(C(Nc2ccc(C(=N)N)cc2)c2nn(-c3ncsc3C(=O)O)c(=O)[nH]2)c(F)c2c1OCCO2` (single isomer, unassigned) [Example 188, 4-{3-[(4-Carbamimidoylphenylamino)-(5-fluoro-8-methoxy-2,3-dihydro-benzo[1,4]dioxin-6-yl)-methyl]-5-oxo-4,5-dihydro-[1,2,4]triazol-1-yl}thiazole-5-carboxylic acid] was run?
**A.** 22.4 nM

**Q.** With `COc1cc(C(Nc2ccc(C(=N)N)cc2)c2nn(-c3nc[nH]c3C(=O)O)c(=O)[nH]2)c(F)c2c1OCCO2` (single isomer, unassigned) [Example 191, 5-{3-[(R) or (S)-(4-Carbamimidoylphenylamino)-(5-fluoro-8-methoxy-2,3-dihydrobenzo[1,4]dioxin-6-yl)methyl]-5-oxo-4,5-dihydro-[1,2,4]triazol-1-yl}-3H-imidazole-4-carboxylic acid trifluoroacetate] as the compound, how does the IC50 read?
**A.** 9.3 nM

**Q.** For `COc1cc(OCCCO)c(F)c(C(Nc2ccc(C(=N)N)cc2)c2nn(-c3[nH]ncc3C(=O)O)c(=O)[nH]2)c1` (single isomer, unassigned) [Example 198, (R) or (S)-5-(3-{(4-Carbamimidoylphenylamino)-[2-fluoro-3-(3-hydroxypropoxy)-5-methoxyphenyl]methyl}-5-oxo-4,5-dihydro-[1,2,4]triazol-1-yl)-1H-pyrazole-4-carboxylic acid acetate], which IC50 is on record?
**A.** 19.6 nM

**Q.** For `COc1cc(COCCO)c(F)c(C(Nc2ccc(C(=N)N)cc2)c2nn(-c3ncccn3)c(=O)[nH]2)c1` (single isomer, unassigned) [Example 216, 4-{[[2-Fluoro-3-(2-hydroxyethoxymethyl)-5-methoxyphenyl]-(5-oxo-1-pyrimidin-2-yl-4,5-dihydro-1H-[1,2,4]triazol-3-yl)methyl]amino}benzamidine], which IC50 is on record?
**A.** 13.4 nM

**Q.** With `COc1cc(CF)cc(C(Nc2ccc(C(=N)N)cc2)c2nn(-c3ncccn3)c(=O)[nH]2)c1` (stereo not drawn) [Example 11, 4-{[(3-fluoromethyl-5-methoxyphenyl)-(5-oxo-1-pyrimidin-2-yl-4,5-dihydro-1H-[1,2,4]triazol-3-yl)methyl]amino}benzamidine acetate] as the compound, how does the IC50 read?
**A.** 29.7 nM

**Q.** Which IC50 does the source give for `COc1ccccc1-n1nc(C(Nc2ccc(C(=N)N)cc2)c2cc(C)cc(OC)c2F)[nH]c1=O` (stereo not drawn) [Example 14, 4-({(2-fluoro-3-methoxy-5-methylphenyl)-[1-(2-methoxyphenyl)-5-oxo-4,5-dihydro-1H-[1,2,4]triazol-3-yl]methyl}amino)benzamidine trifluoroacetate] here?
**A.** 5.9 nM

**Q.** For `COc1cc(C(Nc2ccc(C(=N)N)cc2)c2nn(-c3ncccn3)c(=O)[nH]2)cc(CO)c1OC` (stereo not drawn) [Example 23, 4-{[(5-hydroxymethyl-3,4-dimethoxyphenyl)-(5-oxo-1-pyrimidin-2-yl-4,5-dihydro-1H-[1,2,4]triazol-3-yl)methyl]amino}benzamidine acetate], which IC50 is on record?
**A.** 23.9 nM

**Q.** For `COc1cc(C(Nc2ccc(C(=N)N)cc2)c2nn(-c3ncccn3)c(=O)[nH]2)cc(C(C)O)c1OC` (stereo not drawn) [Example 25, 4-({[3-(1-hydroxyethyl)-4,5-dimethoxyphenyl]-(5-oxo-1-pyrimidin-2-yl-4,5-dihydro-1H-[1,2,4]triazol-3-yl)methyl}amino)benzamidine acetate], which IC50 is on record?
**A.** 15.1 nM

**Q.** Which IC50 does the source give for `COc1cc(OCCF)c(F)c(C(Nc2ccc(C(=N)N)cc2)c2nn(-c3cccc(N)n3)c(=O)[nH]2)c1` (stereo not drawn) [Example 51, 4-({[1-(6-aminopyridin-2-yl)-5-oxo-4,5-dihydro-1H-[1,2,4]triazol-3-yl]-[2-fluoro-3-(2-fluoroethoxy)-5-methoxyphenyl]methyl}amino)benzamidine trifluoroacetate] here?
**A.** 5.1 nM

**Q.** Which IC50 does the source give for `COc1cc(C(Nc2ccc(C(=N)N)cc2)c2nn(-c3ncccc3N)c(=O)[nH]2)cc2c1OCOC2` (stereo not drawn) [Example 57, 4-({[1-(3-aminopyridin-2-yl)-5-oxo-4,5-dihydro-1H-[1,2,4]triazol-3-yl]-(8-methoxy-4H-benzo[1,3]dioxin-6-yl)methyl}amino)benzamidine acetate] here?
**A.** 8.9 nM

**Q.** With `CCc1cc(OCC#N)cc(C(Nc2ccc(C(=N)N)cc2)c2nn(-c3ncccn3)c(=O)[nH]2)c1` (stereo not drawn) [Example 77, 4-{[(3-cyanomethoxy-5-ethylphenyl)-(5-oxo-1-pyrimidin-2-yl-4,5-dihydro-1H-[1,2,4]triazol-3-yl)methyl]amino}benzamidine acetate] as the compound, how does the IC50 read?
**A.** 8.8 nM

**Q.** For `CCOc1cc(COC)cc(C(Nc2ccc(C(=N)N)cc2)c2nn(-c3ncccn3)c(=O)[nH]2)c1` (stereo not drawn) [Example 83, 4-{[(3-ethoxy-5-methoxymethylphenyl)-(5-oxo-1-pyrimidin-2-yl-4,5-dihydro-1H-[1,2,4]triazol-3-yl)methyl]amino}benzamidine acetate], which IC50 is on record?
**A.** 24.8 nM

**Q.** How did the IC50 turn out when `CCOc1cc(CF)cc(C(Nc2ccc(C(=N)N)cc2)c2nn(-c3ncccn3)c(=O)[nH]2)c1` (stereo not drawn) [Example 84, 4-{[(3-ethoxy-5-fluoromethylphenyl)-(5-oxo-1-pyrimidin-2-yl-4,5-dihydro-1H-[1,2,4]triazol-3-yl)methyl]amino}benzamidine acetate] was run?
**A.** 16.9 nM

**Q.** How did the IC50 turn out when `COc1cc(C(Nc2ccc(C(=N)N)cc2)c2nn(-c3ncccn3)c(=O)[nH]2)cc(OC)c1OC` (stereo not drawn) [Example 86, 4-{[(5-oxo-1-pyrimidin-2-yl-4,5-dihydro-1H-[1,2,4]triazol-3-yl)-(3,4,5-trimethoxyphenyl)methyl]amino}benzamidine acetate] was run?
**A.** 51.7 nM

**Q.** Which IC50 does the source give for `COCCOc1c(OC)cc(C(Nc2ccc(C(=N)N)cc2)c2nn(-c3ccccc3OC)c(=O)[nH]2)cc1OC` (stereo not drawn) [Example 87, 4-({[3,5-dimethoxy-4-(2-methoxyethoxy)phenyl]-[1-(2-methoxyphenyl)-5-oxo-4,5-dihydro-1H-[1,2,4]triazol-3-yl]methyl}amino)benzamidine acetate] here?
**A.** 4.2 nM

**Q.** With `CCOc1cccc(C(Nc2ccc(C(=N)N)cc2)c2nn(-c3ncccn3)c(=O)[nH]2)c1` (stereo not drawn) [Example 90, 4-{[(3-ethoxyphenyl)-(5-oxo-1-pyrimidin-2-yl-4,5-dihydro-1H-[1,2,4]triazol-3-yl)methyl]amino}benzamidine acetate] as the compound, how does the IC50 read?
**A.** 66.6 nM

**Q.** `COc1ccccc1-n1nc(C(Nc2ccc(C(=N)N)cc2)c2cc(C)cc(OCCF)c2F)[nH]c1=O` (stereo not drawn) [Example 91, 4-({[2-fluoro-3-(2-fluoroethoxy)-5-methylphenyl]-[1-(2-methoxyphenyl)-5-oxo-4,5-dihydro-1H-[1,2,4]triazol-3-yl]methyl}amino)benzamidine trifluoroacetate] was tested. Which IC50 did it give?
**A.** 6.4 nM

**Q.** Which IC50 does the source give for `COc1cc(C(Nc2ccc(C(=N)N)cc2)c2nn(-c3ccccc3C(N)=O)c(=O)[nH]2)ccc1OCC(=O)N(C)C` (stereo not drawn) [Example 105, 2-{3-[(4-carbamimidoyl-phenylamino)-(4-dimethylcarbamoylmethoxy-3-methoxyphenyl)methyl]-5-oxo-4,5-dihydro-1H-[1,2,4]triazol-1-yl}benzamide trifluoroacetate] here?
**A.** 31.7 nM

**Q.** How did the IC50 turn out when `COc1cc(F)c(C(Nc2ccc(C(=N)N)cc2)c2nn(-c3ccccc3N)c(=O)[nH]2)cc1OC` (stereo not drawn) [Example 107, 4-({[1-(2-aminophenyl)-5-oxo-4,5-dihydro-1H-[1,2,4]triazol-3-yl]-(2-fluoro-4,5-dimethoxyphenyl)methyl}amino)benzamidine trifluoroacetate] was run?
**A.** 4.3 nM

**Q.** `COc1ccccc1-n1nc(C(Nc2ccc(C(=N)N)cc2)c2cc(C)c(OC)c(C)c2)[nH]c1=O` (stereo not drawn) [Example 112, 4-({(4-methoxy-3,5-dimethylphenyl)-[1-(2-methoxyphenyl)-5-oxo-4,5-dihydro-1H-[1,2,4]triazol-3-yl]methyl}amino)benzamidine acetate] was tested. Which IC50 did it give?
**A.** 7.2 nM

**Q.** `CCOc1cc(C(Nc2ccc(C(=N)N)cc2)c2nn(-c3ncccn3)c(=O)[nH]2)ccc1OCC#N` (stereo not drawn) [Example 114, 4-{[(4-cyanomethoxy-3-ethoxyphenyl)-(5-oxo-1-pyrimidin-2-yl-4,5-dihydro-1H-[1,2,4]triazol-3-yl)methyl]amino}benzamidine trifluoroacetate] was tested. Which IC50 did it give?
**A.** 22.8 nM

**Q.** Which IC50 does the source give for `COc1cc(F)c(C(Nc2ccc(C(=N)N)cc2)c2nn(-c3ncccc3OC)c(=O)[nH]2)cc1OC` (stereo not drawn) [Example 124, 4-({(2-fluoro-4,5-dimethoxyphenyl)-[1-(3-methoxypyridin-2-yl)-5-oxo-4,5-dihydro-1H-[1,2,4]triazol-3-yl]methyl}amino)benzamidine acetate] here?
**A.** 10 nM
